Data from patent publication US20230365563A1, “QUINAZOLINE COMPOUND AND APPLICATION THEREOF” (SHANGHAI PHARMACEUTICALS HOLDING CO., LTD., priority 2020, published 2023).
Counter-ions that a name gives are not always drawn.

Legend:
KRAS_G12D and cRAF = target: T1, KRAS_G12D and cRAF (Homo sapiens, UniProt P01116, G12D); experiment: Inhibition of KRAS_G12D/cRAF binding (Cisbio binding kit, 665/615 ratio), Effect Embodiment B; details: read-out: GTP-KRAS-G12D:CRAF IC50
T1 construct: purchased
Method in brief: (§1)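 Compounds underwent 3-fold dilution from their storage solutions (11 points), were transferred to assay wells in duplicate with DMSO held at 1% final, and were briefly centrifuged.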

KRAS-G12D and SOS1 = target: T2, KRAS-G12D and SOS1 (Homo sapiens, UniProt P01116, G12D); experiment: Inhibition of KRAS-G12D/SOS1 binding (Cisbio binding kit, 665/615 ratio), Effect Embodiment A; details: read-out: GTP-KRAS-G12D:SOS1 IC50
T2 construct: purchased
T2 sequence (P01116 1-188 isoform P01116-2 G12D): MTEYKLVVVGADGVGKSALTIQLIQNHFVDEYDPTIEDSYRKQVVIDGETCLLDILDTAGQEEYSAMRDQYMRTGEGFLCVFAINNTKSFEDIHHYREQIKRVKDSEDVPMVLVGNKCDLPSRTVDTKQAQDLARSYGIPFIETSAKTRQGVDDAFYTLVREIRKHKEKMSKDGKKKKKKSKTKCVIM
Method in brief: as §1

KRAS_WT and SOS1 = target: T3, KRAS_WT and SOS1 (Homo sapiens, UniProt P01116); experiment: Inhibition of KRAS_WT/SOS1 binding (Cisbio binding kit, 665/615 ratio), Effect Embodiment C; details: read-out: GTP-KRAS-WT:SOS1 IC50
T3 construct: purchased
T3 sequence (P01116 1-188 isoform P01116-2): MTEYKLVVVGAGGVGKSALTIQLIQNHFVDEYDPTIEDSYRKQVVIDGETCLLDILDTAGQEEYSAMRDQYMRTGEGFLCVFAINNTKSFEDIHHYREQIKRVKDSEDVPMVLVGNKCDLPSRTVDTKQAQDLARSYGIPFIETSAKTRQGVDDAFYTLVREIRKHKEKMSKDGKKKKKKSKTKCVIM
Method in brief: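 Compounds tested as 3-fold, 11-point dilutions in duplicate at 1% DMSO final against the KRAS_WT/SOS1 binding system. IC50 derived by nonlinear regression fit.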

T1 sequence (P01116 1-188 isoform P01116-2 G12D): as the sequence (P01116 1-188 isoform P01116-2 G12D) above

Structure (SMILES) | IC50 (KRAS_G12D and cRAF) [nM] | IC50 (KRAS-G12D and SOS1) [nM] | IC50 (KRAS_WT and SOS1) [nM]
CC1OCCN(CCCOc2nc(N3CC4CCC(C3)N4)c3cc(Cl)c(-c4cc(O)cc5ccccc45)c(F)c3n2)C1C (single isomer, unassigned) [Compound 265d, 4-((R or S)-4-((1R,5S)-3,8-diazabicyclo[3.2.1]octan-3-yl)-6-chloro-2-(3-(2R or 2S, 3R or 3S)-2,3-dimethylmorpholinyl)propoxy)-8-fluoroquinazolin-7-yl)naphthalen-2-ol diformate] | 184 | 50 | 4900
CO[C@@H](COc1nc(N2CC3CCC(C2)N3)c2cc(Cl)c(-c3cc(O)cc4ccccc34)c(F)c2n1)CN1CCCC[C@H]1C (single isomer, unassigned) [Compound 266, (R or S)-4-(4-((1R,5S)-3,8-diazacyclo[3.2.1]octan-3-yl)-6-chloro-8-fluoro-2-((R)-2-methoxy-3-((R)-2-methylpiperidin-1-yl)propoxy)quinazolin-7-yl)naphthalen-2-ol diformate] | 746 | 174 | > 10000
Oc1cc(-c2c(Cl)cc3c(N4CC5CCC(C4)N5)nc(OCCN4CCCC(F)C4)nc3c2F)c2ccccc2c1 (single isomer, unassigned) [Compound 267a, 4-((R or S)-4-((1R,5S)-3,8-diazacyclo[3.2.1]octan-3-yl)-6-chloro-8-fluoro-2-(2-((S or R)-3-fluoropiperidin-1-yl)ethoxy)quinazolin-7-yl)naphthalen-2-ol formate] | 259 | 76.7 | 6340
Oc1cc(-c2c(Cl)cc3c(N4CC5CCC(C4)N5)nc(OCCN4CCCC(F)C4)nc3c2F)c2ccccc2c1 (single isomer, unassigned) [Compound 267b, 4-((R or S)-4-((1R,5S)-3,8-diazacyclo[3.2.1]octan-3-yl)-6-chloro-8-fluoro-2-(2-((R or S)-3-fluoropiperidin-1-yl)ethoxy)quinazolin-7-yl)naphthalen-2-ol formate] | 278 | 118 | 4600
C[C@H]1CCCCN1CCOc1nc(N2CC3CCC(C2)N3)c2cc(Cl)c(-c3cc(O)cc4ccccc34)c(F)c2n1 (single isomer, unassigned) [Compound 268, (R or S)-4-(4-((1R,5S)-3,8-diazacyclo[3.2.1]octan-3-yl)-6-chloro-8-fluoro-2-(2-((S)-2-methylpiperidin-1-yl)ethoxy)quinazolin-7-yl)naphthalen-2-ol diformate] | 346 | 52.4 | 3610
C[C@@H]1CCCCN1CCOc1nc(N2CC3CCC(C2)N3)c2cc(Cl)c(-c3cc(O)cc4ccccc34)c(F)c2n1 (single isomer, unassigned) [Compound 269, (S or R)-4-(4-((1R,5S)-3,8-diazacyclo[3.2.1]octan-3-yl)-6-chloro-8-fluoro-2-(2-((R)-2-methylpiperidin-1-yl)ethoxy)quinazolin-7-yl)naphthalen-2-ol formate] | 339 | 67.9 | 1760
Oc1cc(-c2c(Cl)cc3c(N4CC5CCC(C4)N5)nc(OCCCN4CCC5(CCOC5)C4)nc3c2F)c2ccccc2c1 (single isomer, unassigned) [Compound 270, (4R or 4S)-4-(2-(3-(2-oxo-7-azaspiro[4.4]nonan-7-yl)propoxy)-4-(1R,5S)-3,8-diazacyclo[3.2.1]octan-3-yl)-6-chloro-8-fluoroquinazolin-7-yl)naphthalen-2-ol diformate] | 202 | 43.1 | 1210
CCc1cccc2cc(O)cc(-c3c(F)cc4c(N5CC6CCC(C5)N6)nc(OCCCN5C6CCC5COC6)nc4c3F)c12 (single isomer, unassigned) [Compound 271a, 4-((7S or 7R)-2-(3-(3-oxa-8-azabicyclo[3.2.1]octan-8-yl)propoxy)-4-((1R,5S)-3,8-diazabicyclo[3.2.1]octan-3-yl)-6,8-difluoroquinazolin-7-yl)-5-ethylnaphthalen-2-ol diformate] | 11.4 | 9.86 | 179
C#Cc1c(F)ccc2cccc(-c3c(F)cc4c(N5CC6CCC(C5)N6)nc(OCCCN5C6CCC5COC6)nc4c3F)c12 (single isomer, unassigned) [Compound 272b, 8-(3-((R or S)-4-((1R,5S)-3,8-diazabicyclo[3.2.1]octan-3-yl)-7-(8-ethynyl-7-fluoronaphtthalen-1-yl)-6,8-difluoroquinazolin-2-yl)oxy)propyl)-3-oxa-8-azabicyclo[3.2.1]octane formate] | 76.8 | 18 | 4260
C#Cc1cccc2cc(O)cc(-c3c(F)cc4c(N5CC6CCC(C5)N6)nc(OCCCN5C6CCC5COC6)nc4c3F)c12 (single isomer, unassigned) [Compound 273a, 4-((7S or 7R)-2-(3-(3-oxa-8-azabicyclo[3.2.1]octan-8-yl)propoxy)-4-((1R,5S)-3,8-diazabicyclo[3.2.1]octan-3-yl)-6,8-difluoroquinazolin-7-yl)-5-ethynylnaphthalen-2-ol diformate] | 7.91 | 11.3 | 69.8
N#Cc1cccc2cc(O)cc(-c3c(F)cc4c(N5CC6CCC(C5)N6)nc(OCCCN5C6CCC5COC6)nc4c3F)c12 (single isomer, unassigned) [Compound 278a, 8-((7S or 7R)-2-(3-(3-oxa-8-azabicyclo[3.2.1]octan-8-yl)propoxy)-4-((1R,5S)-3,8-diazabicyclo[3.2.1]octan-3-yl)-6,8-difluoroquinazolin-7-yl)-6-hydroxy-1-naphthonitrile diformate] | 38.6 | 17.6 | 122
C#Cc1c(F)ccc2cccc(-c3c(F)cc4c(N5CC6CCC(C5)N6)nc(OC[C@@]56CCCN5C[C@H](F)C6)nc4c3F)c12 (single isomer, unassigned) [Compound 279a, (S or R)-4-((1R,5S)-3,8-diazacyclo[3.2.1]octyl-3-yl)-7-(8-ethynyl-7-fluoronaphthalen-1-yl)-6,8-difluoro-2-((2R,7aS)-2-fluorotetrahydro-1H-pyrrolidin-7a(5H)-yl)methoxy)quinazoline formate] | 10.9 | 8.77 | 27.3
CCc1c(F)ccc2cccc(-c3c(F)cc4c(N5CC6CCC(C5)N6)nc(OC[C@@]56CCCN5C[C@H](F)C6)nc4c3F)c12 (single isomer, unassigned) [Compound 280a, 4-((1R,5S)-3,8-diazacyclo[3.2.1]octan-3-yl)-7-((S or R)-8-ethyl-7-fluoronaphthalen-1-yl)-6,8-difluoro-2-((2R,7aS)-2-fluorotetrahydro-1H-pyrrolidin-7a(5H)-yl)methoxy)quinazoline dihydrochloride] | 14.1 | 17.1 | 234
CCc1cccc2cccc(-c3c(F)cc4c(N5CC6CCC(C5)N6)nc(OC[C@@]56CCCN5C[C@H](F)C6)nc4c3F)c12 (single isomer, unassigned) [Compound 281a, (S or R)-4-((1R,5S)-3,8-diazacyclo[3.2.1]octan-3-yl)-7-(8-ethylnaphthalen-1-yl)-6,8-difluoro-2-((2R,7aS)-2-fluorotetrahydro-1H-pyrrolin-7a(5H)-yl)methoxy)quinazoline dihydrochloride] | 20.3 | 17.8 | 564
